From ChEMBL document CHEMBL4480433, “Investigation of B,C-ring truncated deguelin derivatives as heat shock protein 90 (HSP90) inhibitors for use as anti-breast cancer agents” (Bioorg Med Chem, 2019)
Active and inactive are the calls of the source. The calls are words filed in the database; no cut-off is given here.

What was measured:
[1] = biological target: T1, Heat shock protein HSP90 (Homo sapiens) (UniProt P07900+P08238); assay: Inhibition of HSP90 in human H1299 cells assessed as reduction in HIF-1alpha at 100 nM incubated for 72 hrs and subsequently incubated under hypoxic conditions for 12 hrs by Western blot analysis relative to control; format: cell-based; conditions: values are per cent of control
[2] = biological target: T1, Heat shock protein HSP90 (Homo sapiens); assay: Inhibition of HSP90 in human H1299 cells assessed as reduction in HIF-1alpha at 10 nM incubated for 72 hrs and subsequently incubated under hypoxic conditions for 12 hrs by Western blot analysis relative to control; format: cell-based; conditions: values are per cent of control
[3] = biological target: T1, Heat shock protein HSP90 (Homo sapiens); assay: Inhibition of HSP90 in human H1299 cells assessed as reduction in HIF-1alpha incubated for 72 hrs and subsequently incubated under hypoxic conditions for 12 hrs by Western blot analysis relative to control; format: cell-based
MDA-MB-231 [4] = assay: Induction of morphological changes in human MDA-MB-231 cells assessed as cytoplasmic shrinkage at 2 to 10 uM after 72 hrs by phase contrast microscopic analysis; format: functional, cell-based
MDA-MB-231 [5] = assay: Inhibition of HSP90 in human MDA-MB-231 cells assessed as reduction in phosphorylated-AKT/total-AKT ratio at 5 to 10 uM after 72 hrs by immunoblot analysis; format: cell-based
MDA-MB-231 [6] = assay: Cytotoxicity against human MDA-MB-231 cells at 10 uM after 72 hrs by MTS assay; format: functional, cell-based
4T1 = assay: Cytotoxicity against mouse 4T1 cells at 10 uM after 72 hrs by MTS assay; format: functional, cell-based
MDA-MB-231 [7] = assay: Inhibition of HSP90 in human MDA-MB-231 cells assessed as reduction in phosphorylated-STAT3/total-STAT3 ratio at 5 to 10 uM after 72 hrs by immunoblot analysis; format: cell-based
MDA-MB-231 [8] = assay: Inhibition of ERK phosphorylation in human MDA-MB-231 cells at 5 to 10 uM after 72 hrs by immunoblot analysis; format: cell-based
MDA-MB-231 [9] = assay: Effect on ERK protein level in human MDA-MB-231 cells at 2 to 10 uM after 72 hrs by immunoblot analysis; format: functional, cell-based
MDA-MB-231 [10] = assay: Inhibition of HSP90 in human MDA-MB-231 cells assessed as reduction in phosphorylated-MEK/total-MEK ratio at 5 to 10 uM after 72 hrs by immunoblot analysis; format: cell-based; conditions: Hofmanni bacterium

SMILES | response, % of control [1] | response, % of control [2] | further results
COc1ccc(N(CCNC(C)=O)C(=O)c2ccc3c(c2OC)C=CC(C)(C)O3)cc1OC | 127% | – | –
COc1ccc(N(Cc2cccc(F)c2)C(=O)c2ccc3c(c2OC)C=CC(C)(C)O3)nc1OC | 85.7% | – | –
COc1ccc(N(CCN2CCOCC2)C(=O)c2ccc3c(c2OC)C=CC(C)(C)O3)cc1OC | 117% | – | –
COc1ccc(N(CCN2CCOCC2)C(=O)c2ccc3c(c2OC)C=CC(C)(C)O3)nc1OC | 60.3% | 72.9% | inhibition [3]: Dose-dependent effect
COc1ccc(N(CCN)C(=O)c2ccc3c(c2OC)C=CC(C)(C)O3)nc1OC | 33.3% | 64% | inhibition [3]: Dose-dependent effect
COc1ccc(N(CCO)C(=O)c2ccc3c(c2OC)C=CC(C)(C)O3)cc1OC | 133% | – | –
COc1ccc(N(CCC2CCNCC2)C(=O)c2ccc3c(c2OC)C=CC(C)(C)O3)nc1OC | 55.2% | 97.2% | –
COc1ccc(N(Cc2ccccc2)C(=O)c2ccc3c(c2OC)C=CC(C)(C)O3)nc1OC | 38.6% | 83.4% | –
COc1ccc(N(CCCN)C(=O)c2ccc3c(c2OC)C=CC(C)(C)O3)c(F)c1OC | 68.5% | – | –
CNCCN(C(=O)c1ccc2c(c1OC)C=CC(C)(C)O2)c1ccc(OC)c(OC)c1F | 107% | – | –
COc1ccc(N(Cc2ccc(Cl)cc2)C(=O)c2ccc3c(c2OC)C=CC(C)(C)O3)nc1OC | 57.6% | – | –
COc1ccc(N(CCNC(=O)OC(C)(C)C)C(=O)c2ccc3c(c2OC)C=CC(C)(C)O3)nc1OC | 57.4% | – | –
COc1ccc(N(Cc2ccccc2)C(=O)c2ccc3c(c2OC)C=CC(C)(C)O3)cc1OC | 69.8% | – | –
COc1ccc(N(CCN2CCN(C)CC2)C(=O)c2ccc3c(c2OC)C=CC(C)(C)O3)cc1OC | 61.9% | – | –
COc1ccc(N(CCN2CCCCC2)C(=O)c2ccc3c(c2OC)C=CC(C)(C)O3)nc1OC | 79.7% | – | –
COc1ccc(N(CCN2CCCCC2)C(=O)c2ccc3c(c2OC)C=CC(C)(C)O3)cc1OC | 83.7% | – | –
COc1ccc(N(CCN2CCNCC2)C(=O)c2ccc3c(c2OC)C=CC(C)(C)O3)c(F)c1OC | 54.9% | – | –
COc1ccc(N(Cc2cccnc2)C(=O)c2ccc3c(c2OC)C=CC(C)(C)O3)nc1OC | 95.8% | – | –
COc1ccc(N(C(=O)c2ccc3c(c2OC)C=CC(C)(C)O3)c2ccc(F)cc2)cc1OC | 70.2% | – | –
COc1ccc(N(CCOCc2ccccc2)C(=O)c2ccc3c(c2OC)C=CC(C)(C)O3)nc1OC | 57.2% | 69.3% | inhibition [3]: Dose-dependent effect
COc1ccc(N(CCOCc2ccccc2)C(=O)c2ccc3c(c2OC)C=CC(C)(C)O3)c(F)c1OC | 65.4% | – | –
COc1ccc(N(Cc2ccccc2)C(=O)c2ccc3c(c2OC)C=CC(C)(C)O3)c(F)c1OC | 60.8% | – | –

SMILES | response, % of control [1] | response, % of control [2] | further results
COc1ccc(N(Cc2ccccn2)C(=O)c2ccc3c(c2OC)C=CC(C)(C)O3)nc1OC | 97% | – | –
COc1ccc(N(CCN2CCOCC2)C(=O)c2ccc3c(c2OC)C=CC(C)(C)O3)c(F)c1OC | 48.8% | 111% | –
COc1ccc(N(CCN2CCCCC2)C(=O)c2ccc3c(c2OC)C=CC(C)(C)O3)c(F)c1OC | 54.3% | – | –
COc1ccc(NC(=O)c2ccc3c(c2OC)C=CC(C)(C)O3)nc1OC | 88.4% | – | –
COc1ccc(N(CCO)C(=O)c2ccc3c(c2OC)C=CC(C)(C)O3)c(F)c1OC | 124% | – | –
COc1ccc(N(C(=O)c2ccc3c(c2OC)C=CC(C)(C)O3)c2ccc(OC)c(OC)c2)cc1 | 61.9% | – | –
COc1ccc(NC(=O)c2ccc3c(c2OC)C=CC(C)(C)O3)cc1OC | 147% | – | –
COc1ccc(N(CCN2CCN(C)CC2)C(=O)c2ccc3c(c2OC)C=CC(C)(C)O3)c(F)c1OC | 53.7% | 81.2% | –
COc1ccc(N(CCNC(=O)OC(C)(C)C)C(=O)c2ccc3c(c2OC)C=CC(C)(C)O3)cc1OC | 70.3% | – | –
COc1ccc(N(CCO)C(=O)c2ccc3c(c2OC)C=CC(C)(C)O3)nc1OC | 87.9% | – | –
COc1ccc(N(CCCNC(C)=O)C(=O)c2ccc3c(c2OC)C=CC(C)(C)O3)nc1OC | 76.6% | – | –
COc1ccc(N(CCNC(C)=O)C(=O)c2ccc3c(c2OC)C=CC(C)(C)O3)nc1OC | 58.1% | 66% | inhibition [3]: Dose-dependent effect
COc1ccc(N(Cc2ccncc2)C(=O)c2ccc3c(c2OC)C=CC(C)(C)O3)nc1OC | 55.2% | 108% | –
COc1ccc(N(Cc2cccc(Cl)c2)C(=O)c2ccc3c(c2OC)C=CC(C)(C)O3)nc1OC | 80.2% | – | –
CCN(CC)CCN(C(=O)c1ccc2c(c1OC)C=CC(C)(C)O2)c1ccc(OC)c(OC)n1 | 64.4% | – | –
CNCCN(C(=O)c1ccc2c(c1OC)C=CC(C)(C)O2)c1ccc(OC)c(OC)n1 | 41.2% | 93% | –
COc1ccc(N(C)C(=O)c2ccc3c(c2OC)C=CC(C)(C)O3)c(F)c1OC | 93.1% | – | –
COc1ccc(N(Cc2ccc(C)cc2)C(=O)c2ccc3c(c2OC)C=CC(C)(C)O3)nc1OC | 71.1% | – | –
COc1ccc(N(CCN(C)C)C(=O)c2ccc3c(c2OC)C=CC(C)(C)O3)nc1OC | 37.9% | 75.5% | inhibition [3]: Dose-dependent effect
COc1ccc(CN(C(=O)c2ccc3c(c2OC)C=CC(C)(C)O3)c2ccc(OC)c(OC)n2)cc1 | 77% | – | –
COc1ccc(N(Cc2ccc(F)cc2)C(=O)c2ccc3c(c2OC)C=CC(C)(C)O3)nc1OC | 63.1% | 104% | –
COc1ccc(N(C)C(=O)c2ccc3c(c2OC)C=CC(C)(C)O3)nc1OC | 62.3% | 90.4% | –

SMILES | response, % of control [1] | response, % of control [2] | further results
COc1ccc(N(C(=O)c2ccc3c(c2OC)C=CC(C)(C)O3)c2ccccc2)cc1OC | 52.8% | 83.7% | –
COc1ccc(N(C(=O)c2ccc3c(c2OC)C=CC(C)(C)O3)c2ccc(Cl)cc2)cc1OC | 81.2% | – | –
COc1ccc(N(CCN(C)C)C(=O)c2ccc3c(c2OC)C=CC(C)(C)O3)cc1OC | 71% | – | –
CNCCN(C(=O)c1ccc2c(c1OC)C=CC(C)(C)O2)c1ccc(OC)c(OC)c1 | 75.9% | – | –
COCCN(C(=O)c1ccc2c(c1OC)C=CC(C)(C)O2)c1ccc(OC)c(OC)c1F | 59.3% | – | –
COc1ccc(N(CCOCc2ccccc2)C(=O)c2ccc3c(c2OC)C=CC(C)(C)O3)cc1OC | 74.4% | – | –
COc1ccc(N(CCN2CCNCC2)C(=O)c2ccc3c(c2OC)C=CC(C)(C)O3)nc1OC | 59.4% | – | –
COc1ccc(N(CCN)C(=O)c2ccc3c(c2OC)C=CC(C)(C)O3)cc1OC | 39.4% | 62.1% | inhibition [3]: Dose-dependent effect
COc1ccc(NC(=O)c2ccc3c(c2OC)C=CC(C)(C)O3)c(F)c1OC | 101% | – | –
COCCN(C(=O)c1ccc2c(c1OC)C=CC(C)(C)O2)c1ccc(OC)c(OC)n1 | 52.5% | – | –
COc1ccc(N(C(=O)c2ccc3c(c2OC)C=CC(C)(C)O3)c2ccc(C)cc2)cc1OC | 58.9% | – | –
COc1ccc(N(C)C(=O)c2ccc3c(c2OC)C=CC(C)(C)O3)cc1OC | 126% | – | –
COc1ccc(N(CCCN)C(=O)c2ccc3c(c2OC)C=CC(C)(C)O3)nc1OC | 45.3% | 111% | –
COc1ccc(N(CCN2CCCC2)C(=O)c2ccc3c(c2OC)C=CC(C)(C)O3)nc1OC | 66% | – | –
COc1ccc(N(CCN(C)C)C(=O)c2ccc3c(c2OC)C=CC(C)(C)O3)c(F)c1OC | 53.3% | 97.9% | –
COc1ccc(N(CCCN(C)C)C(=O)c2ccc3c(c2OC)C=CC(C)(C)O3)nc1OC | 44% | 65.6% | inhibition [3]: Dose-dependent effect
COc1ccc(N(CCN)C(=O)c2ccc3c(c2OC)C=CC(C)(C)O3)c(F)c1OC | 147% | – | –
COc1ccc(N(CCCN)C(=O)c2ccc3c(c2OC)C=CC(C)(C)O3)cc1OC | 100% | – | –
COc1ccc(N(CCN2CCNCC2)C(=O)c2ccc3c(c2OC)C=CC(C)(C)O3)cc1OC | 51.9% | 60.6% | Activity (MDA-MB-231 [4]): Active; inhibition (MDA-MB-231 [5]): Active; Activity (MDA-MB-231 [6]): Active; Activity (4T1): Active; inhibition (MDA-MB-231 [7]): Active; inhibition (MDA-MB-231 [8]): Active; inhibition [3]: Dose-dependent effect; Activity (MDA-MB-231 [9]): inactive; inhibition (MDA-MB-231 [10]): Active
COCCN(C(=O)c1ccc2c(c1OC)C=CC(C)(C)O2)c1ccc(OC)c(OC)c1 | 65.5% | – | –
COc1ccc(N(CCN2CCN(C)CC2)C(=O)c2ccc3c(c2OC)C=CC(C)(C)O3)nc1OC | 42.2% | 97.2% | –
